Laboratory results published in PMC6109843, “Novel Quinazolinone Inhibitors of ALK2 Flip between Alternate Binding Modes: Structure–Activity Relationship, Structural Characterization, Kinase Profiling, and Cellular Proof of Concept” (Journal of Medicinal Chemistry, 2018).

Legend:
Experiment in all cases: DiscoverX scanEDGE kinase panel
Type in all cases: binding
Settings in all cases: Cmpd Conc 1000 nM, read-out: % Ctrl
TIE2 = target: T1, TIE2 (Homo sapiens, UniProt Q02763)
T1 construct: purchased DiscoverX (DiscoveRx) KINOMEscan scanEDGE / KdELECT
Text: (§1) We hypothesized that inhibitors of the normal and flipped modes would display distinct selectivity profiles.
(§2) 1. 16 and 21 kinome selectivity data
(§3) (P – phosphorylated; nP – nonphosphorylated; % Ctrl values show the % of DNAEtagged
(§4) kinase which was not displaced from a solid supported ligand by a test compound relative to
(§5) untreated control, quantified by qPCR).
(§6) Please note: ALKs 1, 2, 3, 4, 5 and 6 are listed by their gene symbols: ACVRL1 (ALK1), ACVR1
(§7) (ALK2), BMPR1A (ALK3), ACVR1B (ALK4), TGFBR1 (ALK5) and BMPR1B (ALK6)
(§8) Cmpd DiscoverX Gene Symbol Entrez Gene Symbol % Ctrl Cmpd Conc (nM)

FGFR3 = target: T2, FGFR3 (Homo sapiens, UniProt P22607)
T2 construct: purchased DiscoverX (DiscoveRx) KINOMEscan scanEDGE / KdELECT
Text: as §1, §2, §3, §4, §5, §6, §7, §8

ALK = target: T3, ALK (Homo sapiens, UniProt Q9UM73)
T3 construct: purchased DiscoverX (DiscoveRx) KINOMEscan scanEDGE / KdELECT
T3 sequence (Q9UM73 19-1620): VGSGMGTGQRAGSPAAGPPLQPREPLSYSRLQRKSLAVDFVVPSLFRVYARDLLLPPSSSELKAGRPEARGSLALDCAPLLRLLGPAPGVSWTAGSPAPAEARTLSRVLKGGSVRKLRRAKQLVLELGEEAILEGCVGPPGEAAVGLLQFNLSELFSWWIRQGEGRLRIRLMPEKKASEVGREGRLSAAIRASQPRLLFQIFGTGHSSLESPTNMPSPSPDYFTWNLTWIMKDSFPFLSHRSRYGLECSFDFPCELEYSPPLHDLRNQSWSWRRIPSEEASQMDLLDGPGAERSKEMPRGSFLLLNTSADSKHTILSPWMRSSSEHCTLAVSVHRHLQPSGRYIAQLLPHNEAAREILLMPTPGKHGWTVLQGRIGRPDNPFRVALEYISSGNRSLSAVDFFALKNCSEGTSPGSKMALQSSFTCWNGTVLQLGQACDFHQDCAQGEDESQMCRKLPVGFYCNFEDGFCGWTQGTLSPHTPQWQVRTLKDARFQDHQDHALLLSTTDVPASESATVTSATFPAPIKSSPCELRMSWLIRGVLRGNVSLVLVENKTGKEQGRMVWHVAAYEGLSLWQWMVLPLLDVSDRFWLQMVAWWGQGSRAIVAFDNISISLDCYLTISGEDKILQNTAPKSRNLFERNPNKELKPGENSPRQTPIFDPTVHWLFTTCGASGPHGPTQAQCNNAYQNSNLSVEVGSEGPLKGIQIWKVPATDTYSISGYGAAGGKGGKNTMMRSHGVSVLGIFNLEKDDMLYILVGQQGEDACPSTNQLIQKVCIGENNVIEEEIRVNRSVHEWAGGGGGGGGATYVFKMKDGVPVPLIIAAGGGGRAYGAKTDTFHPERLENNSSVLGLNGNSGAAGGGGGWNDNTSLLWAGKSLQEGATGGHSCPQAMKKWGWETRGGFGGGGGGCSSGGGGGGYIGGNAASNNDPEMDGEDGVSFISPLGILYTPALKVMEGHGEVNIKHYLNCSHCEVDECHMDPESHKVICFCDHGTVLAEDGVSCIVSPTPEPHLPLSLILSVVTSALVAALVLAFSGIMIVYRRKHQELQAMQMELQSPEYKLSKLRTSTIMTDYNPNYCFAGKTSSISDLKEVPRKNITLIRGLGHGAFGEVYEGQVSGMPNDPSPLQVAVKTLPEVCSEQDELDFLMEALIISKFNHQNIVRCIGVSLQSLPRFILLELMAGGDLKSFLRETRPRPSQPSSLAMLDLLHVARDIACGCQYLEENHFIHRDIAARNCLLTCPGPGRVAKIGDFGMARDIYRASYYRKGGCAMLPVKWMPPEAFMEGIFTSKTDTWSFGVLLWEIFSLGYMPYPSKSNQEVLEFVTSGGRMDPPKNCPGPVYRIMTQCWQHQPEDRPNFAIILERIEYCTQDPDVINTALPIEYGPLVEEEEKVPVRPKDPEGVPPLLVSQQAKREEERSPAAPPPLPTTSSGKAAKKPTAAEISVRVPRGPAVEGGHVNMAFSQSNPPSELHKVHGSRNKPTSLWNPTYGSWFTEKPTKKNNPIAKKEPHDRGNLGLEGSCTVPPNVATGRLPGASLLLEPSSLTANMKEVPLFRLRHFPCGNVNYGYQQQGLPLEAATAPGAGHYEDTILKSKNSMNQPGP
Text: as §1, §2, §3, §4, §5, §6, §7, §8

BMPR2 = target: T4, BMPR2 (Homo sapiens, UniProt Q13873)
T4 construct: purchased DiscoverX (DiscoveRx) KINOMEscan scanEDGE / KdELECT
Text: as §1, §2, §3, §4, §5, §6, §7, §8

ULK2 = target: T5, ULK2 (Homo sapiens, UniProt Q8IYT8)
T5 construct: purchased DiscoverX (DiscoveRx) KINOMEscan scanEDGE / KdELECT
Text: as §1, §2, §3, §4, §5, §6, §7, §8

SNARK = target: T6, SNARK (Homo sapiens, UniProt Q9H093)
T6 construct: purchased DiscoverX (DiscoveRx) KINOMEscan scanEDGE / KdELECT
Text: as §1, §2, §3, §4, §5, §6, §7, §8

PIK3CG = target: T7, PIK3CG (Homo sapiens, UniProt P48736)
T7 construct: purchased DiscoverX (DiscoveRx) KINOMEscan scanEDGE / KdELECT
Text: as §1, §2, §3, §4, §5, §6, §7, §8

ADCK3 = target: T8, ADCK3 (Homo sapiens, UniProt Q8NI60)
T8 construct: purchased DiscoverX (DiscoveRx) KINOMEscan scanEDGE / KdELECT
Text: as §1, §2, §3, §4, §5, §6, §7, §8

KIT = target: T9, KIT (Homo sapiens, UniProt P10721)
T9 construct: purchased DiscoverX
T9 sequence (P10721 26-976): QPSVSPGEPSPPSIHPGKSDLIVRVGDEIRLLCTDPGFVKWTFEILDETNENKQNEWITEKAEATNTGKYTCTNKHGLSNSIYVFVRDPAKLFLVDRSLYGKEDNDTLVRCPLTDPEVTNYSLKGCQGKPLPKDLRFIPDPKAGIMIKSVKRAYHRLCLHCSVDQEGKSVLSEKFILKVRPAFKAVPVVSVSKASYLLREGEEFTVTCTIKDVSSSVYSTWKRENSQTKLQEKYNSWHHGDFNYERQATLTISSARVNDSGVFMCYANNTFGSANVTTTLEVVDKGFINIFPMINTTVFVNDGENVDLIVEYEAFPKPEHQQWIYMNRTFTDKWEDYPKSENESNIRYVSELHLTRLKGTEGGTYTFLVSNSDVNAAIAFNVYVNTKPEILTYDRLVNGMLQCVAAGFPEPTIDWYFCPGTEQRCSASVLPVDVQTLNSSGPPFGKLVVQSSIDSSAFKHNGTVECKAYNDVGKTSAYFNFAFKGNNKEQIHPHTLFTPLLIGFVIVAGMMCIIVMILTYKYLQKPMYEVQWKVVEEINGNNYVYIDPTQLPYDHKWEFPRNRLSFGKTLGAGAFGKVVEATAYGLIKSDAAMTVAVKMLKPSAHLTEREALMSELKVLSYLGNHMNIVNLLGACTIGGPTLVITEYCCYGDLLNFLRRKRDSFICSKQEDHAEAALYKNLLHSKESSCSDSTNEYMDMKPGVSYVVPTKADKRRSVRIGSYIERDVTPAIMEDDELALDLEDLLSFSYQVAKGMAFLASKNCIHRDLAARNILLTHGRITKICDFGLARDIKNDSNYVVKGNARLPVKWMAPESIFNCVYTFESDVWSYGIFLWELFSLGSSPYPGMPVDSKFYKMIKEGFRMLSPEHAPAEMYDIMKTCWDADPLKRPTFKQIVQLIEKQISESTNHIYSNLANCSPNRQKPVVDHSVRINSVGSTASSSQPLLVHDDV
Text: as §1, §2, §3, §4, §5, §6, §7, §8

PIK3C2B = target: T10, PIK3C2B (Homo sapiens, UniProt O00750)
T10 construct: purchased DiscoverX (DiscoveRx) KINOMEscan scanEDGE / KdELECT
Text: as §1, §2, §3, §4, §5, §6, §7, §8

TRKA = target: T11, TRKA (Homo sapiens, UniProt P04629)
T11 construct: purchased DiscoverX (DiscoveRx) KINOMEscan scanEDGE / KdELECT
Text: as §1, §2, §3, §4, §5, §6, §7, §8

RAF1 = target: T12, RAF1 (Homo sapiens, UniProt P04049)
T12 construct: purchased DiscoverX
Text: as §1, §2, §3, §4, §5, §6, §7, §8

PLK1 = target: T13, PLK1 (Homo sapiens, UniProt P53350)
T13 construct: purchased DiscoverX (DiscoveRx) KINOMEscan scanEDGE / KdELECT
Text: as §1, §2, §3, §4, §5, §6, §7, §8

BMPR1B (ALK6) = target: T14, BMPR1B (ALK6) (Homo sapiens, UniProt O00238)
T14 construct: purchased DiscoverX (DiscoveRx) KINOMEscan scanEDGE / KdELECT
T14 sequence (O00238 14-502): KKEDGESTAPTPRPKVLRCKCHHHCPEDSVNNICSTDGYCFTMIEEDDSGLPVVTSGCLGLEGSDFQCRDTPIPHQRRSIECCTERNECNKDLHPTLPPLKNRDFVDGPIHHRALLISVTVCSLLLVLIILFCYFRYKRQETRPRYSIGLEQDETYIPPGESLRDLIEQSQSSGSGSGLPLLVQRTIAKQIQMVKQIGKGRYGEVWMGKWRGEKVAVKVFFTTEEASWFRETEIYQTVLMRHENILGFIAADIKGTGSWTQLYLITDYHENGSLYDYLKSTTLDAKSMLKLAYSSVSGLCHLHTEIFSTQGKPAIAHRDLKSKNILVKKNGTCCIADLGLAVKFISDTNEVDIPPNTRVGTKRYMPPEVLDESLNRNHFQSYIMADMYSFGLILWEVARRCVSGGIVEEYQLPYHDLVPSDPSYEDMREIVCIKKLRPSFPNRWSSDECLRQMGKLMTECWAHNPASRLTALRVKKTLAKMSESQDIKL
Text: as §1, §2, §3, §4, §5, §6, §7, §8

AURKA = target: T15, AURKA (Homo sapiens, UniProt O14965)
T15 construct: purchased DiscoverX (DiscoveRx) KINOMEscan scanEDGE / KdELECT
Text: as §1, §2, §3, §4, §5, §6, §7, §8

PIM1 = target: T16, PIM1 (Homo sapiens, UniProt P11309)
T16 construct: purchased DiscoverX (DiscoveRx) KINOMEscan scanEDGE / KdELECT
Text: as §1, §2, §3, §4, §5, §6, §7, §8

PKACEalpha = target: T17, PKACEalpha (Homo sapiens, UniProt P17612)
T17 construct: purchased DiscoverX (DiscoveRx) KINOMEscan scanEDGE / KdELECT
Text: as §1, §2, §3, §4, §5, §6, §7, §8

PIM3 = target: T18, PIM3 (Homo sapiens, UniProt Q86V86)
T18 construct: purchased DiscoverX (DiscoveRx) KINOMEscan scanEDGE / KdELECT
Text: as §1, §2, §3, §4, §5, §6, §7, §8

PAK1 = target: T19, PAK1 (Homo sapiens, UniProt Q13153)
T19 construct: purchased DiscoverX (DiscoveRx) KINOMEscan scanEDGE / KdELECT
Text: as §1, §2, §3, §4, §5, §6, §7, §8

ACVR2A = target: T20, ACVR2A (Homo sapiens, UniProt P27037)
T20 construct: purchased DiscoverX (DiscoveRx) KINOMEscan scanEDGE / KdELECT
Text: as §1, §2, §3, §4, §5, §6, §7, §8

ABL1(T315I)EP = target: T21, ABL1(T315I)EP (Homo sapiens, UniProt P00519, T315I)
T21 construct: purchased DiscoverX (DiscoveRx) KINOMEscan scanEDGE / KdELECT
Text: as §1, §2, §3, §4, §5, §6, §7, §8

LCK = target: T22, LCK (Homo sapiens, UniProt P06239)
T22 construct: purchased DiscoverX (DiscoveRx) KINOMEscan scanEDGE / KdELECT
T22 sequence (P06239 whole entry): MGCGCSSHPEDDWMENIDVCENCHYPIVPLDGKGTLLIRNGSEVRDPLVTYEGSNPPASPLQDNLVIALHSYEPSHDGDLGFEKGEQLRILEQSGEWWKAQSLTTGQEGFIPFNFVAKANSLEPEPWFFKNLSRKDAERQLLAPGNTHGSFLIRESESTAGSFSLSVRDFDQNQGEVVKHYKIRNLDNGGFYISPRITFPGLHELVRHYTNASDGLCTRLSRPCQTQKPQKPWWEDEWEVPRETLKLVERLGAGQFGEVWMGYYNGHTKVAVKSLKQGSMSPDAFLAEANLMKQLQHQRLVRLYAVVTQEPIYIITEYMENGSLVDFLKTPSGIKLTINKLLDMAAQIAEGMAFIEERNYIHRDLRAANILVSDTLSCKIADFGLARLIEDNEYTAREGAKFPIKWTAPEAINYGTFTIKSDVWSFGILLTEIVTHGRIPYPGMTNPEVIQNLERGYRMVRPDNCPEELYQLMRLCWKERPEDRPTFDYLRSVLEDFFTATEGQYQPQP
Text: as §1, §2, §3, §4, §5, §6, §7, §8

CDK2 = target: T23, CDK2 (Homo sapiens, UniProt P24941)
T23 construct: purchased DiscoverX (DiscoveRx) KINOMEscan scanEDGE / KdELECT
Text: as §1, §2, §3, §4, §5, §6, §7, §8

CDK11 = target: T24, CDK11 (Homo sapiens, UniProt Q9BWU1)
T24 construct: purchased DiscoverX (DiscoveRx) KINOMEscan scanEDGE / KdELECT
Text: as §1, §2, §3, §4, §5, §6, §7, §8

YANK3 = target: T25, YANK3 (Homo sapiens, UniProt Q86UX6)
T25 construct: purchased DiscoverX (DiscoveRx) KINOMEscan scanEDGE / KdELECT
Text: as §1, §2, §3, §4, §5, §6, §7, §8

TSSK1B = target: T26, TSSK1B (Homo sapiens, UniProt Q9BXA7)
T26 construct: purchased DiscoverX (DiscoveRx) KINOMEscan scanEDGE / KdELECT
T26 sequence (Q9BXA7 whole entry): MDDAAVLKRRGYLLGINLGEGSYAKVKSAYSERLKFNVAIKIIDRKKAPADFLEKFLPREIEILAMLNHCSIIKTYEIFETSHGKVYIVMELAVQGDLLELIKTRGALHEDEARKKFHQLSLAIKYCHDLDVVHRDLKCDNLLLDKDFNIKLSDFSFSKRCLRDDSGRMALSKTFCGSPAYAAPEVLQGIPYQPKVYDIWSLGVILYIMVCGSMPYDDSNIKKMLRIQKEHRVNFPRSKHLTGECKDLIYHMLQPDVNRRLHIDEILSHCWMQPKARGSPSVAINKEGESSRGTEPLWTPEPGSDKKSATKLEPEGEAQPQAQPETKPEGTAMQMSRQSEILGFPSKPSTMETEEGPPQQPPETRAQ
Text: as §1, §2, §3, §4, §5, §6, §7, §8

CDK7 = target: T27, CDK7 (Homo sapiens, UniProt P50613)
T27 construct: purchased DiscoverX (DiscoveRx) KINOMEscan scanEDGE / KdELECT
Text: as §1, §2, §3, §4, §5, §6, §7, §8

DCAMKL1 = target: T28, DCAMKL1 (Homo sapiens, UniProt O15075)
T28 construct: purchased DiscoverX (DiscoveRx) KINOMEscan scanEDGE / KdELECT
T28 sequence (O15075 whole entry): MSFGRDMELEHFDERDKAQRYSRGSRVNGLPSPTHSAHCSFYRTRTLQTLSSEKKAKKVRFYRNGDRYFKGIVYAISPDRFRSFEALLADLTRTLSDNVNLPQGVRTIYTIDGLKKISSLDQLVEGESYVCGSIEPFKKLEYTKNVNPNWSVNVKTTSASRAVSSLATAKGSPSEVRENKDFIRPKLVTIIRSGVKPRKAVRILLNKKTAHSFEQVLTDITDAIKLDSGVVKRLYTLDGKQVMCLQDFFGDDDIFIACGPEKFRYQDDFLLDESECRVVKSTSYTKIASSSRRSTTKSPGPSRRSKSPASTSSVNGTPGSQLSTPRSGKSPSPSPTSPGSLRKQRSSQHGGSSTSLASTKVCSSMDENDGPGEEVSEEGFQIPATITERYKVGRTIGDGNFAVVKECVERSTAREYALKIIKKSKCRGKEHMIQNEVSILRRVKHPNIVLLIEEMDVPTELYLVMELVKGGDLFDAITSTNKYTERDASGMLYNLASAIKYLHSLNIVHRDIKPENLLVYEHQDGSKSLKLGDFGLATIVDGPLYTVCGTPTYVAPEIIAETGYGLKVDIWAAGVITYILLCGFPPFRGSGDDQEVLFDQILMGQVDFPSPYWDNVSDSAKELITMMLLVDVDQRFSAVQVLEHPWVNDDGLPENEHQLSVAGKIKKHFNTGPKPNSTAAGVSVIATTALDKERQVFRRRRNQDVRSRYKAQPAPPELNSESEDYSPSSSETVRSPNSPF
Text: as §1, §2, §3, §4, §5, §6, §7, §8

AKT2 = target: T29, AKT2 (Homo sapiens, UniProt P31751)
T29 construct: purchased DiscoverX (DiscoveRx) KINOMEscan scanEDGE / KdELECT
Text: as §1, §2, §3, §4, §5, §6, §7, §8

MLK1 = target: T30, MLK1 (Homo sapiens, UniProt P80192)
T30 construct: purchased DiscoverX (DiscoveRx) KINOMEscan scanEDGE / KdELECT
Text: as §1, §2, §3, §4, §5, §6, §7, §8

JNK1 = target: T31, JNK1 (Homo sapiens, UniProt P45983)
T31 construct: purchased DiscoverX (DiscoveRx) KINOMEscan scanEDGE / KdELECT
Text: as §1, §2, §3, §4, §5, §6, §7, §8

CDK9 = target: T32, CDK9 (Homo sapiens, UniProt P50750)
T32 construct: purchased DiscoverX (DiscoveRx) KINOMEscan scanEDGE / KdELECT
Text: as §1, §2, §3, §4, §5, §6, §7, §8

TNK1 = target: T33, TNK1 (Homo sapiens, UniProt Q13470)
T33 construct: purchased DiscoverX (DiscoveRx) KINOMEscan scanEDGE / KdELECT
Text: as §1, §2, §3, §4, §5, §6, §7, §8

SRC = target: T34, SRC (Homo sapiens, UniProt P12931)
T34 construct: purchased DiscoverX (DiscoveRx) KINOMEscan scanEDGE / KdELECT
Text: as §1, §2, §3, §4, §5, §6, §7, §8

ROCK2 = target: T35, ROCK2 (Homo sapiens, UniProt O75116)
T35 construct: purchased DiscoverX (DiscoveRx) KINOMEscan scanEDGE / KdELECT
Text: as §1, §2, §3, §4, §5, §6, §7, §8

PCTK1 = target: T36, PCTK1 (Homo sapiens, UniProt Q00536)
T36 construct: purchased DiscoverX (DiscoveRx) KINOMEscan scanEDGE / KdELECT
Text: as §1, §2, §3, §4, §5, §6, §7, §8

CSNK1D = target: T37, CSNK1D (Homo sapiens, UniProt P48730)
T37 construct: purchased DiscoverX (DiscoveRx) KINOMEscan scanEDGE / KdELECT
Text: as §1, §2, §3, §4, §5, §6, §7, §8

PAK4 = target: T38, PAK4 (Homo sapiens, UniProt O96013)
T38 construct: purchased DiscoverX (DiscoveRx) KINOMEscan scanEDGE / KdELECT
Text: as §1, §2, §3, §4, §5, §6, §7, §8

KIT(D816H) = target: T39, KIT(D816H) (Homo sapiens, UniProt P10721, D816H)
T39 construct: purchased DiscoverX (DiscoveRx) KINOMEscan scanEDGE / KdELECT
T39 sequence (P10721 26-976 D816H): as the sequence (P10721 26-976) above, with D791H counted along it
Text: as §1, §2, §3, §4, §5, §6, §7, §8

PIK3CA = target: T40, PIK3CA (Homo sapiens, UniProt P42336)
T40 construct: purchased DiscoverX (DiscoveRx) KINOMEscan scanEDGE / KdELECT
Text: as §1, §2, §3, §4, §5, §6, §7, §8

remaining binding at 1 µM (TIE2): 99% | remaining binding at 1 µM (FGFR3): 100% | remaining binding at 1 µM (ALK): 99% | remaining binding at 1 µM (BMPR2): 64% | remaining binding at 1 µM (ULK2): 93% | remaining binding at 1 µM (SNARK): 100% | remaining binding at 1 µM (PIK3CG): 100% | remaining binding at 1 µM (ADCK3): 100% | remaining binding at 1 µM (KIT): 1.8% | remaining binding at 1 µM (PIK3C2B): 100% | remaining binding at 1 µM (TRKA): 76% | remaining binding at 1 µM (RAF1): 88% | remaining binding at 1 µM (PLK1): 86% | remaining binding at 1 µM (BMPR1B (ALK6)): 4.1% | remaining binding at 1 µM (AURKA): 100% | remaining binding at 1 µM (PIM1): 92% | remaining binding at 1 µM (PKACEalpha): 89% | remaining binding at 1 µM (PIM3): 100% | remaining binding at 1 µM (PAK1): 71% | remaining binding at 1 µM (ACVR2A): 100% | remaining binding at 1 µM (ABL1(T315I)EP): 100% | remaining binding at 1 µM (LCK): 98% | remaining binding at 1 µM (CDK2): 95% | remaining binding at 1 µM (CDK11): 68% | remaining binding at 1 µM (YANK3): 86% | remaining binding at 1 µM (TSSK1B): 100% | remaining binding at 1 µM (CDK7): 97% | remaining binding at 1 µM (DCAMKL1): 92% | remaining binding at 1 µM (AKT2): 86% | remaining binding at 1 µM (MLK1): 97% | remaining binding at 1 µM (JNK1): 100% | remaining binding at 1 µM (CDK9): 94% | remaining binding at 1 µM (TNK1): 78% | remaining binding at 1 µM (SRC): 88% | remaining binding at 1 µM (ROCK2): 100% | remaining binding at 1 µM (PCTK1): 87% | remaining binding at 1 µM (CSNK1D): 68% | remaining binding at 1 µM (PAK4): 97% | remaining binding at 1 µM (KIT(D816H)): 100% | remaining binding at 1 µM (PIK3CA): 100%
SMILES: O=c1c2cc(-c3ccnc4ccccc34)ccc2ncn1-c1ccc(N2CCOCC2)cc1 [compound 16, 3-(4-Morpholinophenyl)-6-(quinolin-4-yl)quinazolin-4(3H)-one]
